Where a name gives a salt, the structure may show the parent alone.
Columns and labels:
[1] = test system: high fat diet (HFD) induced obesity mice; test: High fat diet induced obesity mice model (Example 2); assay type: in vivo, NIH male mice; settings: used individually at 50 mg/Kg, once daily i.g., interim results at 15 days
Description: This example describes an in vivo efficacy study of the combinations disclosed in the present invention using a high fat diet (HFD) induced obesity mice model.
Fifty NIH male mice of 4 weeks old were acquired (Guangzhou Institute of Laboratory Animal). After acclimatization for one week, eight mice were selected as normal control; the rest forty-two mice were fed with HFD (in which 40% of calories is from fat) for 14 days to establish a HFD induced obesity mice model resembling the pathophysiology of metabolic syndrome in human. Normal control mice were fed with normal chow diet. […]
The mice from Group 1 to 4 were treated with the corresponding testing articles indicated above once daily by intragastric gavage. […] Blood glucose (fasting and non-fasting), total cholesterol (TC) and triglyceride (TG) levels, food intake, water intake and body weight were measured throughout the study.
On day 28 of the treatment, an oral glucose tolerance test (OGTT) was performed in 12-hour fasted animals. For the OGTT, after the measurement of the basal glucose concentration (T=−30 min), mice received an oral glucose challenge at 2.5 g/Kg and glucose values were determined by glucometer (ACCU-CHEK Active, Roche) at 0, 30, 60 and 120 min. […]

[2] = test system: high fat diet (HFD) induced non-alcoholic fatty liver mice; test: High fat diet induced non-alcoholic fatty liver mice model (Example 5); assay type: in vivo, NIH male mice
Description: This example describes an in vivo efficacy study of BUDCA disclosed in the present invention using a high fat diet (HFD) induced non-alcoholic fatty liver mice model.
91 NIH male mice of 4 weeks old were obtained from Vital River Laboratories (Beijing, China). After acclimatization for one week, 13 mice were selected as control group (Group 1, G1) with normal chow diet fed, and the other 78 mice were fed with HFD (in which 40% of calories is from fat) for 4 weeks to establish an animal model resembling the pathophysiology of non-alcoholic fatty liver in human.
Following 4 weeks of high fat dietary intervention, the 78 mice were divided into 6 groups according to body weight (n=13 per group): • Group 2, G2: Vehicle control (0.5% CMC-Na solution) • Group 3, G3: Low-dose group of BUDCA (30 mg/kg) • Group 4, G4: Middle-dose group of BUDCA (100 mg/kg) • Group 5, G5: High-dose group of BUDCA (300 mg/kg) • Group 6, G6: BBR control group (Berberine HCl, 150 mg/Kg) • Group 7, G7: UDCA control group (Ursodeoxycholic acid, 150 mg/Kg)
The mice from G2 to G7 were administered with the corresponding testing articles indicated above once daily by intragastric gavage. HFD continued throughout the duration of the treatment of 6 weeks. The normal mice (G1) were treated with vehicle (0.5% CMC-Na solution) via intragastric gavage. At the end of experiment, the following biochemical parameters were measured and tests were carried out: • Body weight, the weight ratio of liver • Total cholesterol (TC) and triglyceride (TG) levels, high density lipoprotein cholesterol (HDL-C) and low density lipoprotein cholesterol (LDL-C) levels • Alanine aminotransferase (ALT) and aspartate aminotransferase (AST) levels • Superoxide dismutase (SOD) activity and malondialdehyde (MDA) level • Oral glucose tolerance test (OGTT) • Histopathological examination of liver ([…] staining)
After 6 weeks treatment, blood was collected via retro-orbital bleeding of each 12-hour fasted animal. Liver was harvested by surgery for histopathology analysis after weight measurement. Then the serum was isolated for the determination of TC, TG, HDL-C, LDL-C, ALT, AST, SOD and MDA.
One week before sacrifice (Week 5 of treatment), an oral glucose tolerance test (OGTT) was performed in 12-hour fasted animals. For the OGTT, all mice received an oral glucose challenge at 2.0 g/Kg and the blood glucose concentrations were determined by glucometer (ACCU-CHEK Active, Roche) at 0, 30, 60, 90 and 120 min.
The liver tissue was histopathologically evaluated by […] staining after frozen section.

[3] = test system: high fat diet (HFD) and streptozotocin (STZ) induced diabetic mice; assay type: in vivo
Method: This example describes an in vivo efficacy study of the combinations disclosed in the present invention using a high fat diet (HFD) and streptozotocin (STZ) induced diabetic mice model.
Sixty NIH male mice of 4 weeks old were acquired from Guangzhou Institute of Laboratory Animal. After acclimatization for one week, five mice were selected as normal control group (Group 1), the rest fifty-five mice were administered single dose of STZ at the dose of 40 mg/kg, and fed with HFD (in which 40% of calories is from fat) for 7 days to establish a diabetic animal model resembling the pathophysiology of type 2 diabetes in human. Mice in the normal control group were not administered STZ, and fed with normal chow diet.
The mice from Group 2 to 5 were treated with the corresponding testing articles indicated above once daily by intragastric gavage. HFD continued throughout the duration of the treatment of 28 days. The normal mice (Group 1) were treated with normal saline by intragastric gavage. Fasting blood glucose, total cholesterol (TC) and triglyceride (TG) levels, food intake, water intake and body weight were measured throughout the study.
On day 28 of the treatment, an oral glucose tolerance test (OGTT) was performed in 12-hour fasted animals. For the OGTT, after the measurement of the basal glucose concentration (T=−30 min), mice received an oral glucose challenge at 2.5 g/kg and glucose values were determined by glucometer (ACCU-CHEK Active, Roche) at 0, 30, 60 and 120 min.
After OGTT, blood samples were collected for the measurement of blood glucose, TC and TG. The mice were sacrificed, and the pancreas, liver, kidney and fat were harvested for histopathology analysis.

[4] = 150 mg/Kg (G6 Berberine HCl; G7 UDCA), i.g. once daily, 6 weeks, HFD, mean ± S.E.M
[5] = serum, 150 mg/Kg (G6 Berberine HCl; G7 UDCA), i.g. once daily, 6 weeks, HFD, mean ± S.E.M
[6] = Day 0 (before treatment), same doses
[7] = Day 3, same doses, once daily i.g.
[8] = Day 27, same doses, once daily i.g.
[9] = Day 28, same doses, once daily i.g.

Compound	Pharmacological effects comparing to the vehicle control group [1]	Body weight [2, 4] [g]	Weight ratio of liver [2, 4] [%]	ALT [2, 5] [U/L]	AST [2, 5] [U/L]	HDL-C [2, 5] [mmol/L]	LDL-C [2, 5] [mmol/L]	SOD [2, 5] [U/mL]	TC [2, 5] [mmol/L]	TG [2, 5] [mmol/L]	further results
COc1ccc2cc3[n+](cc2c1OC)CCc1cc2c(cc1-3)OCO2 [berberine, 5,6-dihydro-9,10-dimethoxybenzo[g]-1,3-benzodioxolo[5,6-a]quinolizinium]	neither berberine (Group 2), nor hydroxycitric acid (Group 3) demonstrated any pharmacological effects										Animals showing gastrointestinal side effects at the time of sacrifice ([2]; berberine treatment group (150 mg/Kg), 6 weeks i.g.): 50 % of animals
C[C@H](CCC(=O)O)[C@H]1CC[C@H]2[C@@H]3[C@@H](O)C[C@@H]4C[C@H](O)CC[C@]4(C)[C@H]3CC[C@]12C [UDCA, 3α,7β-dihydroxy-5β-cholan-24-oic acid, reference compound]		42.0 ± 1.16	4.77 ± 0.26	30.6 ± 5.73	162.86 ± 29.42	2.13 ± 0.33	1.37 ± 0.26	44.75 ± 11.99	4.77 ± 0.70	1.20 ± 0.22	
CN(C)C(=N)NC(=N)N [Metformin, N,N-Dimethylimidodicarbonimidic diamide]											Effect on symptoms of diabetes (overall efficacy) ([3]; 28 days treatment, HFD/STZ mice): did not demonstrate a clear efficacy; Fasting blood glucose, Day 0 ([3]; Day 0 (before treatment), metformin 300 mg/kg, berberine 150 + UA 150 mg/kg, berberine 150 + EPA 75 + DHA 75 mg/kg): 24.08 ± 5.44 mmol/L; Weight, Day 0 ([3]; Day 0 (before treatment), metformin 300 mg/kg, berberine 150 + UA 150 mg/kg, berberine 150 + EPA 75 + DHA 75 mg/kg, once daily i.g.): 26.30 ± 2.54 g; Total Cholesterol, Day 0 [3, 6]: 297.96 ± 67.09 mg/dL; Triglyceride, Day 0 [3, 6]: 2.40 ± 1.03 mmol/L; Food Intake, Day 3 [3, 7]: 8.66 g; Water intake, Day 3 [3, 7]: 19.40 mL; Water intake, Day 6 ([3]; Day 6, same doses, once daily i.g.): 23.60 mL; Weight, Day 27 ([3]; Day 27, metformin 300 mg/kg, berberine 150 + UA 150 mg/kg, berberine 150 + EPA 75 + DHA 75 mg/kg, once daily i.g.): 36.99 ± 3.90 g; Food Intake, Day 27 [3, 8]: 9.37 g; Water intake, Day 27 [3, 8]: 34.40 mL; Fasting blood glucose, Day 28 [3, 9]: 21.66 ± 4.71 mmol/L; Total Cholesterol, Day 28 [3, 9]: 436.99 ± 159.73 mg/dL; Triglyceride, Day 28 [3, 9]: 6.06 ± 6.71 mmol/L
O=C(O)CC(O)(C(=O)O)C(O)C(=O)O (stereo not drawn) [hydroxycitric acid, 1,2-dihydroxypropane-1,2,3-tricarboxylic acid]	neither berberine (Group 2), nor hydroxycitric acid (Group 3) demonstrated any pharmacological effects										
COc1ccc2cc3[n+](cc2c1OC)CCc1cc2c(cc1-3)OCO2 [Berberine HCl, reference compound]		42.4 ± 1.37	4.26 ± 0.12	37.1 ± 4.08	198.7 ± 18.93	2.47 ± 0.20	1.42 ± 0.21	77.03 ± 8.98	5.97 ± 0.47	1.00 ± 0.08	MDA [2, 5]: 9.3 ± 2.14 µM
